Data from ChEMBL document CHEMBL1201862, “PubChem BioAssay data set” (2004).
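Cells were grown in 96-well plates and exposed to each compound for 48 hours at five concentrations; endpoints were interpolated linearly between bracketing concentrations, or set to the highest concentration if not reached. Here, GI50 denotes the concentration required for 50% inhibition of growth.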 Activity calls are given as the source filed them. Rule as the data show it: active = GI50 up to about 1.1 µM and inactive = higher.

Assays:
Assay in all cases: NCI anticancer screen, dose series, 48 h
OVCAR-8 = tested on: OVCAR-8
CCRF-CEM = tested on: CCRF-CEM
RXF 393 = tested on: RXF 393
SK-MEL-2 = tested on: SK-MEL-2
MDA-MB-231 = tested on: MDA-MB-231
IGROV-1 = tested on: IGROV-1
M14 = tested on: M14
SF-539 = tested on: SF-539
UACC-257 = tested on: UACC-257
HOP-62 = tested on: HOP-62
SW-620 = tested on: SW-620
SK-OV-3 = tested on: SK-OV-3
HCT-15 = tested on: HCT-15
UO-31 = tested on: UO-31
NCI-H226 = tested on: NCI-H226
NCI-H522 = tested on: NCI-H522
NCI-H460 = tested on: NCI-H460
Malme-3M = tested on: Malme-3M
MDA-MB-435 = tested on: MDA-MB-435
T47D = tested on: T47D

| Structure (SMILES) | GI50 (OVCAR-8) | GI50 (CCRF-CEM) | GI50 (RXF 393) | GI50 (SK-MEL-2) | GI50 (MDA-MB-231) | GI50 (IGROV-1) | GI50 (M14) | GI50 (SF-539) | GI50 (UACC-257) | GI50 (HOP-62) | GI50 (SW-620) | GI50 (SK-OV-3) | GI50 (HCT-15) [µM] | GI50 (UO-31) | GI50 (NCI-H226) | GI50 (NCI-H522) | GI50 (NCI-H460) | GI50 (Malme-3M) | GI50 (MDA-MB-435) | GI50 (T47D) |
| --- | --- | --- | --- | --- | --- | --- | --- | --- | --- | --- | --- | --- | --- | --- | --- | --- | --- | --- | --- | --- |
| O=C1Nc2ccccc2N/C1=C\C(=O)C(F)F | > 100 µM (inactive) | > 100 µM (inactive) | > 100 µM (inactive) | > 100 µM (inactive) | > 100 µM (inactive) | > 100 µM (inactive) | > 100 µM (inactive) | > 100 µM (inactive) | > 100 µM (inactive) | > 100 µM (inactive) | > 100 µM (inactive) | > 100 µM (inactive) | > 100 | > 100 µM (inactive) | > 100 µM (inactive) | > 100 µM (inactive) | > 100 µM (inactive) | > 100 µM (inactive) | > 100 µM (inactive) | – |
| Cc1cccc(C)c1NC(=O)/C(CC(=O)CC(c1ccccc1)c1c(O)c2ccccc2oc1=O)=N/O (stereo unspecified) | > 100 µM (inactive) | > 100 µM (inactive) | > 100 µM (inactive) | > 100 µM (inactive) | > 100 µM (inactive) | > 100 µM (inactive) | > 100 µM (inactive) | > 100 µM (inactive) | > 100 µM (inactive) | > 100 µM (inactive) | > 100 µM (inactive) | > 100 µM (inactive) | > 100 | > 100 µM (inactive) | > 100 µM (inactive) | > 100 µM (inactive) | > 100 µM (inactive) | – | > 100 µM (inactive) | – |
| CC(C)/C=C1\CCC(CN(C)C)C1=O (stereo unspecified) | 2 µM (inactive) | 1.63 µM (inactive) | 0.656 µM (active) | 7.05 µM (inactive) | 1.42 µM (inactive) | 7.05 µM (inactive) | 1.77 µM (inactive) | 7.29 µM (inactive) | 4.63 µM (inactive) | 18.4 µM (inactive) | 0.656 µM (active) | 18.3 µM (inactive) | 2.13 | 8.79 µM (inactive) | 26.9 µM (inactive) | 0.082 µM (active) | 18.9 µM (inactive) | 1.04 µM (active) | 1.6 µM (inactive) | – |
| CC(C)(C)c1ccc(/C=N/NC(=O)CSCC(=O)N/N=C/c2ccc(C(C)(C)C)cc2)cc1 | 2.63 µM (inactive) | – | 2.15 µM (inactive) | 2.28 µM (inactive) | 0.22 µM (active) | 0.64 µM (active) | 1.57 µM (inactive) | 2.12 µM (inactive) | 3.02 µM (inactive) | 2.96 µM (inactive) | 2.59 µM (inactive) | 5.61 µM (inactive) | 4.14 | 3.71 µM (inactive) | 2.09 µM (inactive) | 4.47 µM (inactive) | 3.61 µM (inactive) | 9.1 µM (inactive) | – | 4.88 µM (inactive) |
| COC(=O)N/N=C(\C)C(CN1CCCCC1)C(C1=C(O)c2ccccc2OC1)c1ccccc1 (stereo unspecified) | > 100 µM (inactive) | > 100 µM (inactive) | 17.9 µM (inactive) | > 100 µM (inactive) | – | > 100 µM (inactive) | > 100 µM (inactive) | > 100 µM (inactive) | > 100 µM (inactive) | > 100 µM (inactive) | > 100 µM (inactive) | > 100 µM (inactive) | > 100 | 72.4 µM (inactive) | > 100 µM (inactive) | > 100 µM (inactive) | > 100 µM (inactive) | > 100 µM (inactive) | – | – |
| CC12CCCC3(CC(=O)C(C)(C)C3C(=O)C1)C2 (stereo unspecified) | > 100 µM (inactive) | > 100 µM (inactive) | – | > 100 µM (inactive) | – | > 100 µM (inactive) | > 100 µM (inactive) | – | > 100 µM (inactive) | > 100 µM (inactive) | > 100 µM (inactive) | > 100 µM (inactive) | > 100 | > 100 µM (inactive) | > 100 µM (inactive) | > 100 µM (inactive) | > 100 µM (inactive) | > 100 µM (inactive) | > 100 µM (inactive) | > 100 µM (inactive) |
| O=S(=O)(C1=CC(S(=O)(=O)c2ccccc2)CN(Cc2ccccc2)C1c1cccc2ccccc12)c1ccccc1 (stereo unspecified) | > 69 µM (inactive) | > 69 µM (inactive) | 25.4 µM (inactive) | > 69 µM (inactive) | – | > 69 µM (inactive) | > 69 µM (inactive) | > 69 µM (inactive) | > 69 µM (inactive) | > 69 µM (inactive) | > 69 µM (inactive) | > 69 µM (inactive) | > 69 | > 69 µM (inactive) | 14.6 µM (inactive) | > 69 µM (inactive) | > 69 µM (inactive) | > 69 µM (inactive) | – | – |
| Cc1cccc(/C=C2/C(=O)Nc3ccccc32)n1 | 23.3 µM (inactive) | 15.4 µM (inactive) | 10.6 µM (inactive) | 12.8 µM (inactive) | – | – | 15.1 µM (inactive) | 20.5 µM (inactive) | – | 16.6 µM (inactive) | 19.3 µM (inactive) | 18.1 µM (inactive) | 13.3 | 14.3 µM (inactive) | – | 12.7 µM (inactive) | 16.9 µM (inactive) | 16.3 µM (inactive) | 16.7 µM (inactive) | 4.95 µM (inactive) |
| COc1ccccc1Nc1nc2c([nH]1)c(=O)n(C)c(=O)n2C | > 10 µM (inactive) | > 10 µM (inactive) | > 10 µM (inactive) | – | > 10 µM (inactive) | > 10 µM (inactive) | > 10 µM (inactive) | – | > 10 µM (inactive) | > 10 µM (inactive) | > 10 µM (inactive) | > 10 µM (inactive) | > 10 | – | – | – | – | > 10 µM (inactive) | > 10 µM (inactive) | > 10 µM (inactive) |
| C/C(=C\CNc1ncnc2c1ncn2C1CCCCO1)COP(=O)(O)O (stereo unspecified) | > 100 µM (inactive) | > 100 µM (inactive) | > 100 µM (inactive) | > 100 µM (inactive) | – | > 100 µM (inactive) | > 100 µM (inactive) | > 100 µM (inactive) | > 100 µM (inactive) | > 100 µM (inactive) | > 100 µM (inactive) | > 100 µM (inactive) | > 100 | > 100 µM (inactive) | > 100 µM (inactive) | > 100 µM (inactive) | > 100 µM (inactive) | > 100 µM (inactive) | – | – |
| N=C(N)NNC(=O)CCn1[nH]c(=O)c(Cl)c(Cl)c1=O | > 100 µM (inactive) | > 100 µM (inactive) | > 100 µM (inactive) | > 100 µM (inactive) | – | > 100 µM (inactive) | > 100 µM (inactive) | > 100 µM (inactive) | > 100 µM (inactive) | > 100 µM (inactive) | > 100 µM (inactive) | > 100 µM (inactive) | > 100 | > 100 µM (inactive) | > 100 µM (inactive) | > 100 µM (inactive) | > 100 µM (inactive) | > 100 µM (inactive) | – | – |
| CC(O)C(N/C=C1/N=C(c2ccccc2)OC1=O)C(=O)O (stereo unspecified) | > 100 µM (inactive) | > 100 µM (inactive) | > 100 µM (inactive) | > 100 µM (inactive) | – | > 100 µM (inactive) | > 100 µM (inactive) | > 100 µM (inactive) | > 100 µM (inactive) | > 100 µM (inactive) | > 100 µM (inactive) | > 100 µM (inactive) | 10 | > 100 µM (inactive) | > 100 µM (inactive) | > 100 µM (inactive) | > 100 µM (inactive) | > 100 µM (inactive) | – | – |
| NC(=S)Nc1c(S(N)(=O)=O)cc(S(N)(=O)=O)c(Cl)c1Cl | > 100 µM (inactive) | > 100 µM (inactive) | > 100 µM (inactive) | > 100 µM (inactive) | > 100 µM (inactive) | > 100 µM (inactive) | > 100 µM (inactive) | 0.443 µM (active) | > 100 µM (inactive) | > 100 µM (inactive) | > 100 µM (inactive) | > 100 µM (inactive) | > 100 | > 100 µM (inactive) | > 100 µM (inactive) | > 100 µM (inactive) | – | > 100 µM (inactive) | > 100 µM (inactive) | – |
| CCOC(=O)c1nc(C)oc1C(F)(F)F | > 100 µM (inactive) | > 100 µM (inactive) | > 100 µM (inactive) | > 100 µM (inactive) | – | > 100 µM (inactive) | > 100 µM (inactive) | > 100 µM (inactive) | > 100 µM (inactive) | > 100 µM (inactive) | > 100 µM (inactive) | > 100 µM (inactive) | > 100 | > 100 µM (inactive) | > 100 µM (inactive) | > 100 µM (inactive) | > 100 µM (inactive) | > 100 µM (inactive) | – | – |
| N#Cc1c(-c2ccc([N+](=O)[O-])cc2)c(C#N)c(=O)n(NS(=O)(=O)c2ccccc2)c1-c1ccccc1 | > 100 µM (inactive) | > 100 µM (inactive) | > 100 µM (inactive) | > 100 µM (inactive) | > 100 µM (inactive) | > 100 µM (inactive) | > 100 µM (inactive) | > 100 µM (inactive) | > 100 µM (inactive) | > 100 µM (inactive) | > 100 µM (inactive) | > 100 µM (inactive) | > 100 | – | > 100 µM (inactive) | > 100 µM (inactive) | > 100 µM (inactive) | > 100 µM (inactive) | > 100 µM (inactive) | – |
| NC(=O)c1cccc(OCC(O)CO)c1 (stereo unspecified) | > 100 µM (inactive) | > 100 µM (inactive) | – | > 100 µM (inactive) | > 100 µM (inactive) | > 100 µM (inactive) | > 100 µM (inactive) | > 100 µM (inactive) | > 100 µM (inactive) | > 100 µM (inactive) | > 100 µM (inactive) | > 100 µM (inactive) | > 100 | > 100 µM (inactive) | > 100 µM (inactive) | > 100 µM (inactive) | > 100 µM (inactive) | – | – | > 100 µM (inactive) |
